Results from publication PMC8406418 (Journal of Natural Products, 2021).
Values joined by “and” are separate entries in the source; they are usually repeats but may differ in a detail not shown here. Identical values can stand only once. Like-named read-outs stand apart in the source and are kept apart here. Where a SMILES comes first, the peptide text is derived from it. Bridges are numbered along the chain shown (N, C = ends).

Assays:
mouse KOR [1] = target: T1, mouse KOR (Mus musculus, UniProt P33534)
mouse KOR [2] = target: T1, mouse KOR; experiment: cell-based; conditions: for Emax: HEK293, read-out: Emax cAMP inhibition
[3] = test system: human T-cell proliferation; parameters: method as in PMID 23840803; conditions: cited from earlier work
mouse KOR [4] = target: T1, mouse KOR; experiment: biochemical
mouse KOR [5] = target: T1, mouse KOR; format: cell-based; parameters: expressed in transfected cells; host or cells: HEK293 (transient, jetPRIME)
[6] = test system: untransfected HEK 293 cells; format: cell-based

T1 sequence (P33534 whole entry): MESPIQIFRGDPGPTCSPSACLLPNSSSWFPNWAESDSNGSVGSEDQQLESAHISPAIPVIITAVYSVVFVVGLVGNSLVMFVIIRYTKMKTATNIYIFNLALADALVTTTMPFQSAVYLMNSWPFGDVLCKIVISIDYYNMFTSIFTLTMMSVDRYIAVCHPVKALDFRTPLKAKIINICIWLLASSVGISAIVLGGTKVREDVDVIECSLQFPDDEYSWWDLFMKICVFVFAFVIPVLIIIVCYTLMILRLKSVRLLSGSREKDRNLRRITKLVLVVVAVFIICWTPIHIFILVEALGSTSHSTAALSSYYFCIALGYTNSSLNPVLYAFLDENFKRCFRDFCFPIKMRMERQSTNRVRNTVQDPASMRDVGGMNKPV

With CC[C@H]1CN2CCc3cc(OC)c(OC)cc3[C@@H]2C[C@@H]1C[C@H]1NCCc2cc(OC)c(OC)cc21 [Emetine] the “displacement of [3H]-DPN” value (mouse KOR [1]; up to concentrations of 10 μM, 1 nM [3H]-DPN) was “did not displace the radioligand”.
In the case of CC(C)C[C@@H]1NC(=O)CNC(=O)[C@H](CC(N)=O)NC(=O)[C@H](CCCNC(=N)N)NC(=O)[C@H]([C@@H](C)O)NC(=O)[C@@H]2CSSC[C@@H]3NC(=O)[C@H]([C@@H](C)O)NC(=O)CNC(=O)CNC(=O)[C@H](C(C)C)NC(=O)[C@@H]4CSSC[C@H](NC(=O)[C@H](CCCCN)NC(=O)[C@H](CSSC[C@H](NC(=O)[C@H](C(C)C)NC(=O)[C@@H]5CCCN5C1=O)C(=O)NCC(=O)N[C@@H](CCC(=O)O)C(=O)N[C@@H]([C@@H](C)O)C(=O)N4)NC(=O)CNC(=O)[C@@H]1CCCN1C(=O)[C@H]([C@@H](C)O)NC(=O)[C@H](CC(N)=O)NC3=O)C(=O)N[C@@H](CO)C(=O)N[C@@H](Cc1c[nH]c3ccccc13)C(=O)N1CCC[C@H]1C(=O)N[C@@H](C(C)C)C(=O)N2 [T20K, [T20K]kalata B1] (cyclo(CGETCVGGTCNTPGCKCSWPVCTRNGLPV); disulfide 1-15, 5-17, 10-22), the “increase in basal cAMP production” value (mouse KOR [2]) is reported as about 50%, the “increase in efficacy of dyn A1–13 (cAMP)” value (mouse KOR [2]) is reported as 30–60% and the EC50 (mouse KOR [2]; EC50 cAMP inhibition) is reported as 24000 nM and ~24000 nM. For the same compound, the Emax (mouse KOR [2]) was 105 ± 5%, the “potency to suppress lymphocyte proliferation” value [3] was 2000 to 4000 nM and the Ki (mouse KOR [4]) was 2000 nM and ~2000 nM. For the same compound, the “β-arrestin-2 recruitment (interaction of β-arrestin-2 and KOR)” value (mouse KOR [5]) was “no interaction of β-arrestin-2 and KOR was detected”.
With CC[C@H](C)[C@@H]1NC(=O)[C@H](C(C)C)NC(=O)[C@H]([C@@H](C)O)NC(=O)[C@H](CO)NC(=O)[C@H](Cc2ccccc2)NC(=O)[C@@H]2CSSC[C@@H]3NC(=O)[C@H](C(C)C)NC(=O)[C@H](CCCCN)NC(=O)[C@H](CC(N)=O)NC(=O)[C@H](CCCCN)NC(=O)[C@@H]4CSSC[C@H](NC(=O)[C@H](CO)NC(=O)[C@H](CCC(=O)O)NC(=O)CNC(=O)[C@H](CSSC[C@H](NC(=O)CNC1=O)C(=O)N[C@@H](CO)C(=O)N4)NC(=O)[C@@H]1CCCN1C(=O)[C@H]([C@@H](C)CC)NC(=O)[C@H](C(C)C)NC(=O)CNC(=O)[C@H](CC(N)=O)NC(=O)[C@H](CCCNC(=N)N)NC(=O)[C@H](Cc1ccc(O)cc1)NC3=O)C(=O)N[C@@H](C(C)C)C(=O)N[C@@H](Cc1ccccc1)C(=O)N[C@@H]([C@@H](C)CC)C(=O)N1CCC[C@H]1C(=O)N2 [caripe 10] (cyclo(CFSTVIGCSCKNKVCYRNGVIPCGESCVFIP); disulfide 1-15, 8-23, 10-27) the EC50 (mouse KOR [2]; EC50 cAMP inhibition) was 60200 nM and ~60000 nM, the Emax (mouse KOR [2]) was 144 ± 12% and the “displacement of [3H]-DPN by cyclotides” value (mouse KOR [1]) was “strongest effect”. The Ki (mouse KOR [4]) was 1200 ± 300 nM.
With CC[C@H](C)[C@H](NC(=O)[C@H](CCCNC(=N)N)NC(=O)[C@H](CCCNC(=N)N)NC(=O)[C@H](CC(C)C)NC(=O)[C@H](Cc1ccccc1)NC(=O)CNC(=O)CNC(=O)[C@@H](N)Cc1ccc(O)cc1)C(=O)N[C@@H](CCCNC(=N)N)C(=O)N1CCC[C@H]1C(=O)N[C@@H](CCCCN)C(=O)N[C@@H](CC(C)C)C(=O)N[C@@H](CCCCN)C(N)=O [dyn A1–13, Dyn A1–13 amide, reference compound] the “cAMP inhibition Emax ± SD” value (mouse KOR [2]) was 115.5 ± 20.0% and 122.0 ± 21.6% and 133.2 ± 41.9 % and 160.3 ± 47.4 % and 158.8 ± 54.0 %, the EC50 (mouse KOR [2]; read-out: cAMP inhibition EC50 ± SD) was 8.8 ± 2.4 nM and the “changes in cAMP levels” value [6] was “no changes in cAMP levels were observed”. The Ki (mouse KOR [1]; read-out: Ki ± SD) was 0.4 nM and 0.3 nM and the EC50 (mouse KOR [5]; read-out: EC50 β-arrestin-2 recruitment) was 159 ± 92.4 nM.
